{
  "source": "ChEMBL document CHEMBL5465560",
  "about": "“Selectivity Literature for EUbOPEN Chemogenomic Library” (2024)",
  "key": {"[1]": {"molecular_target": "TRAF2 and NCK-interacting protein kinase (Homo sapiens) (UniProt Q9UKE5)", "sequence (Q9UKE5 whole entry, looked up)": "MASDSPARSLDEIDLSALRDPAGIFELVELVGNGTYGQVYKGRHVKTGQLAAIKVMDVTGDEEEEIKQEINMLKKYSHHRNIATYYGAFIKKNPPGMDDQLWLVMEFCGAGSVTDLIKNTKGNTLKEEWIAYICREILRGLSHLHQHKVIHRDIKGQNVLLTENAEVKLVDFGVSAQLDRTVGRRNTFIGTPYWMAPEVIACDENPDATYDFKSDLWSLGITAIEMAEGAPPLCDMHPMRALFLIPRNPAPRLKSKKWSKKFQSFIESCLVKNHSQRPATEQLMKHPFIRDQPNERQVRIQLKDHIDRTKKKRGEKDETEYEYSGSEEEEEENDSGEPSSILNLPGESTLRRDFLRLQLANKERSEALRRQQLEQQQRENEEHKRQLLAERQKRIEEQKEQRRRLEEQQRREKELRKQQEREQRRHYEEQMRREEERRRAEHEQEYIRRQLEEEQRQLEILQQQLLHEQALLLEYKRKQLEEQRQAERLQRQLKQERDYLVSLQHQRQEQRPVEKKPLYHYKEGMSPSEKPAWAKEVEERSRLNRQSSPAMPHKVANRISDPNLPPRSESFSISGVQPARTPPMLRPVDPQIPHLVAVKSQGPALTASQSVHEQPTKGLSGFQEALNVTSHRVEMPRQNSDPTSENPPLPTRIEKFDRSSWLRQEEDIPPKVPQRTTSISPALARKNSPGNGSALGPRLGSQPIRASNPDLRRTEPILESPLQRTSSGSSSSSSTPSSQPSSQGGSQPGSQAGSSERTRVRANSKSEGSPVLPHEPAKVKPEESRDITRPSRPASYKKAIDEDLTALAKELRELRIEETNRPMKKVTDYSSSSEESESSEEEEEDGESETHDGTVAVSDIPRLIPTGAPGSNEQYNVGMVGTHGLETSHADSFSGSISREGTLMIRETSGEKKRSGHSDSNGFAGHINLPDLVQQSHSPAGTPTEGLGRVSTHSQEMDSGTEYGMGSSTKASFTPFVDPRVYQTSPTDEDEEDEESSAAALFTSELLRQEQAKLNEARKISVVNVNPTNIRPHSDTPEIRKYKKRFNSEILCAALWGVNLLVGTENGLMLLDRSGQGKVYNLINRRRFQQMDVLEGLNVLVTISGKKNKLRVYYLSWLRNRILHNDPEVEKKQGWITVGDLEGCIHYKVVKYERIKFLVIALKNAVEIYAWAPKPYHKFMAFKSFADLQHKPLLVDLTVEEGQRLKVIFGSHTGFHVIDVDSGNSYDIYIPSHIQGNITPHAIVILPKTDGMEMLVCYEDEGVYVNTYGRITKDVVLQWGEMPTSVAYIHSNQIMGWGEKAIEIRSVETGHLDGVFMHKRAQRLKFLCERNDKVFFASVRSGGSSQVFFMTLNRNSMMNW", "experiment": "Selectivity interaction (KinomeScan (DiscoverX)) EUB0001049a TNIK", "conditions": "at 1 µM"}, "[2]": {"molecular_target": "T1, Tyrosine-protein kinase JAK3 (Homo sapiens) (UniProt P52333)", "T1 sequence (whole entry)": "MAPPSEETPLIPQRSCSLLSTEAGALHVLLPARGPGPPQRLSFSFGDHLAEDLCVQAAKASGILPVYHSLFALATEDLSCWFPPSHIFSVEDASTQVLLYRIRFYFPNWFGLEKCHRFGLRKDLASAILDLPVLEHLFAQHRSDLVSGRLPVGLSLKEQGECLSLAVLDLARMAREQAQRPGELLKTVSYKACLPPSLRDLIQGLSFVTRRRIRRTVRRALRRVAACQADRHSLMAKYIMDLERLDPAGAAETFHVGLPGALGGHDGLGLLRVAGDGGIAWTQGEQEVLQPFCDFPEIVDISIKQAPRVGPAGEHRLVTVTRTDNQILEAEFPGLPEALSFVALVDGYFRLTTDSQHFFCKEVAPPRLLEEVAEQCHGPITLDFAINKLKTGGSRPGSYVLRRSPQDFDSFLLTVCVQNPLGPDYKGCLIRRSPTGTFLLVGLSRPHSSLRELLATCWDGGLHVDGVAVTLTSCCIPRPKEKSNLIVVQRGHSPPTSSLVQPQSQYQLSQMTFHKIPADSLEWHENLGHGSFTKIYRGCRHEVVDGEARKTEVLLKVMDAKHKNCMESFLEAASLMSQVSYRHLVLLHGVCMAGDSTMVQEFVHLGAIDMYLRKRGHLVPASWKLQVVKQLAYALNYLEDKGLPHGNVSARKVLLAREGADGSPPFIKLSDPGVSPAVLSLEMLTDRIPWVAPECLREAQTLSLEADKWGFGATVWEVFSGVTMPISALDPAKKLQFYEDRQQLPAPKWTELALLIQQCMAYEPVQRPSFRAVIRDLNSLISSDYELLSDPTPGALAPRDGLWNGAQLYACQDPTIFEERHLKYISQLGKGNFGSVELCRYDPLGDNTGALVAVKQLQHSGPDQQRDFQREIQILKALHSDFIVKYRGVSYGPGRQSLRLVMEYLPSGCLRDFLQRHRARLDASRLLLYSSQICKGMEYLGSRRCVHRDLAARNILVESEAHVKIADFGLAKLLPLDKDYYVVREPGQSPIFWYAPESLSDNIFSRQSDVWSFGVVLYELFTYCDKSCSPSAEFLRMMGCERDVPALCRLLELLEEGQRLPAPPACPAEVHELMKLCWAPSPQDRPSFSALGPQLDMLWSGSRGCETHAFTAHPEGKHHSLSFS", "experiment": "Selectivity interaction (Ambit KINOMEscan and KiNATiv profiling in Jurkat cells) EUB0000090b JAK3", "type": "cell-based", "conditions": "at 1 µM"}, "[3]": {"molecular_target": "Mitogen-activated protein kinase 8 (Homo sapiens, UniProt P45983)", "sequence (P45983 whole entry)": "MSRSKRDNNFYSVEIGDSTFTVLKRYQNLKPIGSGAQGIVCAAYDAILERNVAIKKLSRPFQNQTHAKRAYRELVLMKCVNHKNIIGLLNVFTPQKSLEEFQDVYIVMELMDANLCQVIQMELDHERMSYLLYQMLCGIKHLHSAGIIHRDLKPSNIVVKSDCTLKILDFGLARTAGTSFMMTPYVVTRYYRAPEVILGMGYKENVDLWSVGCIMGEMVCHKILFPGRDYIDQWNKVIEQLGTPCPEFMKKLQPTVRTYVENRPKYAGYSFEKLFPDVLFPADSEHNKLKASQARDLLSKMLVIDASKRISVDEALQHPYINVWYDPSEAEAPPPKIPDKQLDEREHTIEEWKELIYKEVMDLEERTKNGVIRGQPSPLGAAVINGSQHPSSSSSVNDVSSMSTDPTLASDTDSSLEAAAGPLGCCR", "experiment": "Selectivity interaction (LanthaScreen Eu Kinase Binding Assay) EUB0001632a MAPK8", "conditions": "at 10 µM"}, "[4]": {"molecular_target": "Cyclin-dependent kinase 14 (Homo sapiens) (UniProt O94921)", "sequence (O94921 whole entry)": "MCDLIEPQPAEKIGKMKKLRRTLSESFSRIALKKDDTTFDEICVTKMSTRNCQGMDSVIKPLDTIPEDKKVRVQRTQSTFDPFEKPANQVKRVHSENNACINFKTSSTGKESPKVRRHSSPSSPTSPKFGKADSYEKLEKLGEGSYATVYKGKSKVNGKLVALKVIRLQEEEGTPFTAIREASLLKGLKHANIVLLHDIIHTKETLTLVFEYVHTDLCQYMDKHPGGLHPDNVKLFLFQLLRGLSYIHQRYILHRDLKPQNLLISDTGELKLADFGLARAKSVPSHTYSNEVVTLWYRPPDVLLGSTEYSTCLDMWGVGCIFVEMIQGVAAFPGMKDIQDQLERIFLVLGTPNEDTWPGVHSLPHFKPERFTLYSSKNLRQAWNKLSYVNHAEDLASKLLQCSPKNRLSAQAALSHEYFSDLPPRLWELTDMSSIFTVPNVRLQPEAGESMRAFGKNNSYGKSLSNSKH", "experiment": "Selectivity interaction (KinomeScan (DiscoverX)) EUB0000695a CDK14", "conditions": "at 100 nM"}, "[5]": {"molecular_target": "Serine/threonine-protein kinase WNK3 (Homo sapiens) (UniProt Q9BYP7)", "sequence (Q9BYP7 whole entry)": "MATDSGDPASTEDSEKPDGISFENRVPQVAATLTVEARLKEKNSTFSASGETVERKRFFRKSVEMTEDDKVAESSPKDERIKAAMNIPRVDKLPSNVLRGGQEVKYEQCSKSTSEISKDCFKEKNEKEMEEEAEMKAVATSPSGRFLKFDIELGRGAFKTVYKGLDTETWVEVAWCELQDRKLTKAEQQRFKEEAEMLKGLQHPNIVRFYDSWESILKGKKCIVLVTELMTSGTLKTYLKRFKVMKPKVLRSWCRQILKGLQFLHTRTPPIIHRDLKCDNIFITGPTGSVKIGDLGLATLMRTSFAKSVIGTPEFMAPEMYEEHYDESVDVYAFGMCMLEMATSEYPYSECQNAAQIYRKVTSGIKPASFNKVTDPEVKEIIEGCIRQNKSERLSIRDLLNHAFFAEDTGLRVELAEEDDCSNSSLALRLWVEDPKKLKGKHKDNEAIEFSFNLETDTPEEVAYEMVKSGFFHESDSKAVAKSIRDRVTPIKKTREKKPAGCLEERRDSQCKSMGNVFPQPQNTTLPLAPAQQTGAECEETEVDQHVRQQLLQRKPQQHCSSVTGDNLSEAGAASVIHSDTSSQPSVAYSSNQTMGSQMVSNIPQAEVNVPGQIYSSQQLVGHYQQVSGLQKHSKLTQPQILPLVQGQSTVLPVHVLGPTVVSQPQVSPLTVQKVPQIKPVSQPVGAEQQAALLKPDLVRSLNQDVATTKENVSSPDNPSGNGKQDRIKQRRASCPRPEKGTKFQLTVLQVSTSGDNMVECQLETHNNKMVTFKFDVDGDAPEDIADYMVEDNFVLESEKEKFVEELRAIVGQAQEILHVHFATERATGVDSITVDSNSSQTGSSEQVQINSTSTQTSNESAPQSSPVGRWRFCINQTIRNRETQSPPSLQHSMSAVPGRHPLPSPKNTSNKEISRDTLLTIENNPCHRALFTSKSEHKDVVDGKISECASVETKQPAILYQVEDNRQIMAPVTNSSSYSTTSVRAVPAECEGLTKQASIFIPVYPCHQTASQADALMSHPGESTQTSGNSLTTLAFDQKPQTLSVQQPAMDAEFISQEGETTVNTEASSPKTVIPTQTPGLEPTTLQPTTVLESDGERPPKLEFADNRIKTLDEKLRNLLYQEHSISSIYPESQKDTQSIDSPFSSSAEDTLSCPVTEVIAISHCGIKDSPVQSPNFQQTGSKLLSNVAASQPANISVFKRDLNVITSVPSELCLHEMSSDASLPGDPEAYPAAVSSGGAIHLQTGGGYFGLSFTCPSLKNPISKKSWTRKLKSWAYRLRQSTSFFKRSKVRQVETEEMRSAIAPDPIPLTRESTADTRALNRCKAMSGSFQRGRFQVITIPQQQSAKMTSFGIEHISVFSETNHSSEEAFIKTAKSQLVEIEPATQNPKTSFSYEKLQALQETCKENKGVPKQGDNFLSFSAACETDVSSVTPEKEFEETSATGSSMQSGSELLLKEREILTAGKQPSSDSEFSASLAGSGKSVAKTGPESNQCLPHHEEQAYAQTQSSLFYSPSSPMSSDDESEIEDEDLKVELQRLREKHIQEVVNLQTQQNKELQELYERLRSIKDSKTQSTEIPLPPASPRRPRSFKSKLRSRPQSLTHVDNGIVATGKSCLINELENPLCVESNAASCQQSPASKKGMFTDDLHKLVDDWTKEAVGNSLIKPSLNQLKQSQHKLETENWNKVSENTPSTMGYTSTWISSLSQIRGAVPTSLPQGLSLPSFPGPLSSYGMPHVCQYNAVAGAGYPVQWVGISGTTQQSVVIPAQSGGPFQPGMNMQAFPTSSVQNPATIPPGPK", "experiment": "Selectivity interaction (KinomeScan (DiscoverX)) EUB0000695a WNK3", "conditions": "at 100 nM"}, "[6]": {"molecular_target": "T2, Myosin light chain kinase (Homo sapiens) (UniProt Q32MK0)", "T2 sequence (whole entry)": "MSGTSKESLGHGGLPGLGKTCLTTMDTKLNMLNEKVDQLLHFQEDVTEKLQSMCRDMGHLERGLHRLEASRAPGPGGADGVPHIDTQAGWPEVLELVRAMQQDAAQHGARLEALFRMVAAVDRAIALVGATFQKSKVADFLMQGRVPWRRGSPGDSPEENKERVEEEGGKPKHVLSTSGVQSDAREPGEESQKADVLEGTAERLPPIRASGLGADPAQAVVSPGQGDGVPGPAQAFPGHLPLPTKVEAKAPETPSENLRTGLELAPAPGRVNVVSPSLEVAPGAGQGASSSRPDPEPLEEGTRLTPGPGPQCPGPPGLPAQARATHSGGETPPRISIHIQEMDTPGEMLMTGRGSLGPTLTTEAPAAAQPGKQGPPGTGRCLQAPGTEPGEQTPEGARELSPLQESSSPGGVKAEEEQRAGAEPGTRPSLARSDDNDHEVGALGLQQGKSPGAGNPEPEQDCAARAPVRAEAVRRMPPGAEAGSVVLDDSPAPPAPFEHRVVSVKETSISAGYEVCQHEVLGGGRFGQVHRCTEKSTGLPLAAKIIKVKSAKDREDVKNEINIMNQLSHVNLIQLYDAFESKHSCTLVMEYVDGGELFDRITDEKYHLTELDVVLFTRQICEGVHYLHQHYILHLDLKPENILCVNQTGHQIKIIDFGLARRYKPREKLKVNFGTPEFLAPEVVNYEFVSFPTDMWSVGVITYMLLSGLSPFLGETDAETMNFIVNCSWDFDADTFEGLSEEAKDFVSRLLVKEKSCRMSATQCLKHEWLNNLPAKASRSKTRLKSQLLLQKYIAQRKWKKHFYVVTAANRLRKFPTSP", "experiment": "Selectivity interaction (KinomeScan (DiscoverX)) EUB0001079a MYLK3", "conditions": "at 1 µM"}, "[7]": {"molecular_target": "Ribosomal protein S6 kinase alpha-6 (Homo sapiens, UniProt Q9UK32)", "sequence (Q9UK32 whole entry)": "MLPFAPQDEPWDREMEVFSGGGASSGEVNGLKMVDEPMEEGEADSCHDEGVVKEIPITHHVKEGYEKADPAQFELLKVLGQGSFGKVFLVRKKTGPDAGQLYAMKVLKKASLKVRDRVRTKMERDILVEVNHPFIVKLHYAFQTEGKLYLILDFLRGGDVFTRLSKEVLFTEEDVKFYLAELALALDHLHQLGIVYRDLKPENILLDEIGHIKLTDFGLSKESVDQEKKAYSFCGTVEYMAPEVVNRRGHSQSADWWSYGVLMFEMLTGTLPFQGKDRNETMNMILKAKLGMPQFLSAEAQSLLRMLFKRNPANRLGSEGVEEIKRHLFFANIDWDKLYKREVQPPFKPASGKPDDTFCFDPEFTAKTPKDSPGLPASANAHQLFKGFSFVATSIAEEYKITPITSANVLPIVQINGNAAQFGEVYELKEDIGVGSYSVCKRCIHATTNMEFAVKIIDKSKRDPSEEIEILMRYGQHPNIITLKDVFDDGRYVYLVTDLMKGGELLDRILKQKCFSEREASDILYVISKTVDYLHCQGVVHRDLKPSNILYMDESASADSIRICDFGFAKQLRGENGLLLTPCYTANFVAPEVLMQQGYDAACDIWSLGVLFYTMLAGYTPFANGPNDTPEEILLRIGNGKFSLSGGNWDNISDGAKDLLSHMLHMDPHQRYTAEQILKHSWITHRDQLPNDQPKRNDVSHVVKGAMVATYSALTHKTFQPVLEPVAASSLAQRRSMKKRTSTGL", "experiment": "Selectivity interaction (KinomeScan (DiscoverX)) EUB0001079a RPS6KA6", "conditions": "at 1 µM"}, "[8]": {"molecular_target": "T3, Megakaryocyte-associated tyrosine-protein kinase (Homo sapiens) (UniProt P42679)", "T3 sequence (whole entry)": "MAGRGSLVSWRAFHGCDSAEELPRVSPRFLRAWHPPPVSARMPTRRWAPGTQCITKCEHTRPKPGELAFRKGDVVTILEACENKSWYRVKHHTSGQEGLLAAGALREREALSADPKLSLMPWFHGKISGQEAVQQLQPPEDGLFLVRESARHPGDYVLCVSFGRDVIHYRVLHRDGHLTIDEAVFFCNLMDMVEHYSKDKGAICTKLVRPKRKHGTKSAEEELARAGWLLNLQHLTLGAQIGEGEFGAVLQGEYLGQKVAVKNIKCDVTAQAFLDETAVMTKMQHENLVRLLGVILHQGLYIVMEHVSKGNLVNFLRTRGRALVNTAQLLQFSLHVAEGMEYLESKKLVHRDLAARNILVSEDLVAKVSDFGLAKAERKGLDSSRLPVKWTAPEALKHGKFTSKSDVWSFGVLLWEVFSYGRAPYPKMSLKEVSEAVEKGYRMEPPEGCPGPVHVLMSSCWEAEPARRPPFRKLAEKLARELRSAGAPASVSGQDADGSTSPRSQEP", "experiment": "Selectivity interaction (KinomeScan (DiscoverX)) EUB0000655a MATK", "conditions": "at 10 µM"}, "[9]": {"molecular_target": "Serine/threonine-protein kinase Chk2 (Homo sapiens) (UniProt O96017)", "experiment": "Selectivity interaction (KinomeScan (DiscoverX)) EUB0000618a CHEK2", "conditions": "at 10 µM"}, "[10]": {"molecular_target": "Vascular endothelial growth factor receptor 2 (Homo sapiens, UniProt P35968)", "experiment": "Selectivity interaction (SelectScreen profiling (Invitrogen)) EUB0000607a KDR", "conditions": "at 2 µM"}},
  "data": [
    {"smiles": "COc1cc(Nc2nc(C)cc(-c3cnn4nc(OC)ccc34)n2)cc(C(F)(F)F)c1", "values": [
      {"measurement": "% of control", "setting": "[1]", "value": 74, "unit": "%"}
    ]},
    {"smiles": "CN(C)C/C=C/C(=O)Nc1ccc(C(=O)N2CCCC(Nc3ncc(Cl)c(-c4c[nH]c5ccccc45)n3)C2)cc1", "note": "(stereo not given)", "values": [
      {"measurement": "% of control", "setting": "[2]", "value": 100, "unit": "%"}
    ]},
    {"smiles": "Cn1cc(-n2cnc3c(NCc4nc5cc(Cl)c(Cl)cc5[nH]4)nc(N4CCOCC4)nc32)cn1", "values": [
      {"measurement": "% of inhibition", "setting": "[3]", "value": -32.2, "unit": "%"}
    ]},
    {"smiles": "Cc1cc(F)c(C(=O)Nc2cccc(-c3nncn3C(C)C)n2)cc1-n1cnc(C2CC2)c1", "values": [
      {"measurement": "% of control", "setting": "[4]", "value": 49, "unit": "%"},
      {"measurement": "% of control", "setting": "[5]", "value": 100, "unit": "%"}
    ]},
    {"smiles": "Nc1cnc(N2CCc3cc(S(=O)(=O)Nc4c(F)cc(Cl)cc4F)cc(N4CCCC4=O)c32)nc1", "note": "[TP-020n]", "values": [
      {"measurement": "% of control", "setting": "[6]", "value": 100, "unit": "%"},
      {"measurement": "% of control", "setting": "[7]", "value": 100, "unit": "%"}
    ]},
    {"smiles": "CN(C)CCOc1ccc(-c2nc(-c3ccncc3)c(-c3ccc4c(c3)CC/C4=N\\O)[nH]2)cc1", "values": [
      {"measurement": "% of control", "setting": "[8]", "value": 100, "unit": "%"}
    ]},
    {"smiles": "O[C@H]1CC[C@H](Nc2ncc3nc(Nc4c(F)cc(F)cc4F)n([C@H]4CCOC4)c3n2)CC1", "values": [
      {"measurement": "% of control", "setting": "[9]", "value": 100, "unit": "%"}
    ]},
    {"smiles": "CNC(=O)Nc1ccc(-c2nc(N3CC4CCC(C3)O4)c3cnn(C4CCC5(CC4)OCCO5)c3n2)cc1", "values": [
      {"measurement": "% of inhibition", "setting": "[10]", "value": 7, "unit": "%"}
    ]}
  ]
}
